# Columns and labels:
# [1] = system: FoxM1B/C mRNA; experiment: Downregulation of FoxM1B/C mRNA by RT-qPCR in human fibroblasts; type: cell-based; details: Fibroblast, 24 hours, Hill fit, read-out: EC50 for decline of FoxM1B/C mRNAs lacking exon 9
# Procedure: (§1) FIGS. 1A, 1B and 1C. Induction of alternative splicing of FoxM1 towards FoxM1A in fibroblasts. Human fibroblasts were incubated with cpds. 1-4 at different doses for 24 hours, and changes in FoxM1A RNA (containing exon A2) and FoxM1B/C (lacking exon A2) mRNA expression were assessed by RT-qPCR. Dose response curves were fitted to a Hill binding equation to estimate the EC50. FIG. 1A., upregulation of FoxM1A mRNA; FIG. 1B., downregulation of FoxM1B/C mRNA; FIG. 1C., Correlation of EC50 values for FoxM1A upregulation and FoxM1B/C downregulation. Data represent means±SEM of 4 independent observations.
# (§2) To investigate an effect on splicing of FoxM1, human fibroblasts were treated for 24 hours with cpds. 1-4 in dose response, and analysed by RT-qPCR for presence of mRNA including (FoxM1A) or excluding (FoxM1B/C) the Δ9 exon. The resulting dose response curves were fitted to a Hill binding equation. […] 1, 2, 3 and 4, respectively. […] 1, 2, 3 and 4, respectively.
# (§3) Fibroblasts, at 10000 cells per cm^2 were treated with varying doses of compounds ([…]) for 24 hours. RNA extraction was performed as per instructions mentioned in the Ambion® Cells-to-CT™ Kits from Applied Biosystems®. RNA samples were frozen at −20° C. until further analysis. Relative expression levels of FoxM1A or FoxM1B/C along with GAPDH for internal control, was measured using one-step multiplex reverse transcription-polymerase chain reaction (RT-PCR). TaqMan® FAM probes were used for relative quantitation of FoxM1A or FoxM1B/C expression levels and TaqMan® VIC probes were used for relative quantitation of human GAPDH levels. The fidelity of the amplification methods was determined using the ΔΔCt relative quantification method for quantitative PCR.
# [2] = system: FoxM1A mRNA; experiment: Upregulation of FoxM1A mRNA by RT-qPCR in human fibroblasts; type: cell-based; details: Fibroblast, 24 hours, Hill fit, read-out: EC50 for increased expression of FoxM1A mRNA including exon 9
# Procedure: as §1, §2, §3
# [3] = system: human fibroblasts; experiment: Micronuclei induction (MNT) in fibroblasts; type: cell-based; details: dose response, 2% cut-off
# Procedure: (§4) FIGS. 2A, 2B and 2C. Induction of proliferation arrest and cell death by cpds. Alternating FoxM1 splicing towards FoxM1A in fibroblasts. Human fibroblasts were incubated with cpds. 1-4 at different doses for 5 days (120 hours), and changes in cellular impedance (Cell Index) were assessed online. Data are expressed as delta Cell Index after normalization for the starting value of each well. Data at 72, 96 and 120 hour time points (see arrows) were averaged for quantification. FIG. 2A, Micronuclei induction (MNT) in fibroblasts with increasing doses of cpd. 1-4; FIG. 2B, Dose-dependent induction of cytotoxicity by cpds. 1-4. expressed as % of untreated control after 24 hours. A cut-off at 75% (ED75%, dashed line) defined the concentration at which a meaningful impact on proliferation and cell survival was observed. […] 1-4. expressed as % of untreated control. […]
# (§5) For investigation of the effect of altered FoxM1 expression on micronucleus induction (MNT) and cell survival, human fibroblasts were treated for up to 120 hours with cpds. 1-4 in dose response, and MNT, cytotoxicity or Cell Index were assessed on the xCELLigence platform, monitoring proliferation rates and cell death online. To define a quantitative measure for cytotoxic effects, a 2% cut-off for MNT induction (FIG. 2A), a 75% cut-off for cell survival (EC75%), and a 75% cut-off was estimated (ED75%). […]
# [4] = system: human fibroblasts; experiment: Cytotoxicity in fibroblasts; type: cell-based; details: dose response, 75% cut-off, 24 hours
# Procedure: as §4, §5
# [5] = system: human fibroblasts; experiment: Cell Index (cellular impedance, xCELLigence) in fibroblasts; type: cell-based; details: up to 120 hours, 75% cut-off
# Procedure: as §4, §5
# [6] = system: Human BT474 breast cancer cells; experiment: Western blot, actin protein in BT474 breast cancer cells; type: cell-based; details: BT474, 10 μM
# Procedure: (§6) Upregulation of FoxM1A protein correlates with cytotoxicity in breast cancer cells. Human BT474 breast cancer cells were treated with cpd. 2 at 10 μM for 1 or 2 days under proliferating conditions (in the presence of serum), and total protein extracts analyzed by SDS PAGE and Western Blot for FoxM1A and actin protein levels. To assess if increase in FoxM1A protein by alternative splicing of FoxM1 towards FoxM1A induces cell death in a cancer condition, human breast cancer cells (BT474) were treated to modulate FoxM1 expression, and FoxM1A protein levels were assessed at day 1 and 2 of treatment. On day 1 and 2 under control conditions, FoxM1A was detectable by Western Blot, but at low concentrations. Treatment with cpd. […] 2 at 10 μM, whereas FoxM1A levels were increased in the same samples by nearly 3-fold. When normalized to actin, FoxM1A protein levels increased by 28-fold by treatment with cpd. 2 at 10 μM. […] Data represent means±SEM of 3 independent observations. Statistical comparison was performed by one-way ANOVA followed by Dunnet's post-hoc test. *, p<0.05, ***, p<0.001.
# (§7) Human myoblasts were acquired from ECACC, BT474 cells were obtained from ATCC, and were cultivated according to supplier protocols. […] Fluorescence was acquired with the Odyssey imaging system (Licor Biosciences), FoxM1A intensity was normalized for actin. Data were analyzed using GraphPad software.
# [7] = system: FoxM1A protein; experiment: Western blot, FoxM1A protein in BT474 breast cancer cells; type: cell-based, human; details: BT474, 10 μM
# Procedure: as §6
# Human myoblasts were acquired from ECACC, BT474 cells were obtained from ATCC, and were cultivated according to supplier protocols. For experimental purpose, human myoblasts were cultivated for 5 days and were treated with varying doses of compounds (0.1-10 μM). BT474 cells were cultivated for up to 2 days and treated with compounds at 10 μM. For Western blot analyses, myoblast cells treated over 5 days or BT474 cells treated for 2 days were lysed in boiling Laemmli buffer (Bio-Rad) containing 100 mM dithiothreitol. SDS PAGE blots were probed with rabbit-anti FoxM1 antibody (Cell Signaling Technology, 1:1000), goat anti-Actin (Santa Cruz Biotechnology, 1:20000) and Alexa680/800 secondary antibodies (Molecular Probes, 1:10,000). Fluorescence was acquired with the Odyssey imaging system (Licor Biosciences), FoxM1A intensity was normalized for actin. Data were analyzed using GraphPad software.
# [8] = system: FoxM1A protein; experiment: Western blot, FoxM1A protein in proliferating human myoblasts; type: cell-based; details: proliferating conditions (serum), 5 days, highest dose (10 μM)
# Procedure: (§8) FIGS. 5A, 5B and 5C. Upregulation of FoxM1A protein correlates with cytotoxicity in myoblasts. Human myoblasts were treated with cpd. 3 (0.1, 1 and 10 μM) for 5 days under proliferating conditions (in the presence of serum), and total protein extracts analyzed by SDS PAGE and Western Blot for FoxM1A and actin protein levels. FIG. 5A, FoxM1A and actin Western blots from samples treated without (control) or with cpd. 3 (0.1, 1 and 10 μM); FIG. 5B, Protein levels of actin (surrogate for cell number); FIG. 5C, FoxM1A/actin ratio. Data represent means±SEM of 3 independent observations. Statistical comparison was performed by one-way ANOVA followed by Dunnet's post-hoc test. *, p<0.05, **, p<0.01, ***, p<0.001.
# (§9) To assess if alternative splicing of FoxM1 towards FoxM1A results in meaningful changes in the protein levels and cell death, human primary myoblasts were treated under proliferating conditions to modulate FoxM1 expression and evaluate its consequence. Under proliferative conditions, FoxM1A was detectable by Western Blot, but at low concentrations […]. Treatment with cpd. […]
# as §7
# [9] = system: human primary myoblasts; experiment: Western blot, actin protein (surrogate for cell number) in proliferating human myoblasts; type: cell-based; details: proliferating conditions (serum), 5 days, doses up to 10 μM
# Procedure: as §8, §9, §7
# [10] = system: FoxM1A protein; experiment: Western blot, FoxM1A protein in differentiating (non-proliferating) human myoblasts; type: cell-based; details: differentiating conditions (no serum), 5 days, doses up to 10 μM
# Procedure: (§10) FIGS. 6A and 6B. No change in FoxM1A protein and no cytotoxicity in non-proliferating myoblasts. Human myoblasts were treated with cpd. 3 (0.1, 1 and 10 μM) for 5 days under differentiating conditions (in the absence of serum), and total protein extracts analyzed by SDS PAGE and Western Blot for FoxM1A and actin protein levels. FIG. 6A, FoxM1A and actin Western blots from samples treated without (control) or with cpd. 3 (0.1, 1 and 10 μM). Note that FoxM1A protein was undetectable; FIG. 6B, Protein levels of actin. Data represent means±SEM of 3 independent observations. Statistical comparison was performed by one-way ANOVA followed by Dunnet's post-hoc test.
# (§11) To assess if alternative splicing of FoxM1 towards FoxM1A is present also in cells that are not proliferating, the same human primary myoblasts were differentiated to investigate if FoxM1 expression is also present and can be modulated similarly under those conditions. Under differentiating conditions, FoxM1A was undetectable by Western Blot (FIG. 6A). Treatment with cpd.
# as §7
# [11] = system: human primary myoblasts; experiment: Western blot, actin protein in differentiating (non-proliferating) human myoblasts; type: cell-based; details: differentiating conditions (no serum), 5 days, doses up to 10 μM
# Procedure: as §10, §11, §7
Compound,EC50 [1] [nM],EC50 [2] [nM],Potency in MNT (micronucleus induction) [3],Potency in cytotoxicity [4],Potency in reduction of Cell Index [5],Reduction of actin protein ([6]; day 1) [%],Reduction of actin protein ([6]; day 2),Increase of FoxM1A protein levels normalized to actin [7] [fold],Effect on FoxM1A protein ([7]; day 1),Increase of FoxM1A protein levels ([7]; day 2 (same samples)) [fold],Increase of FoxM1A protein level normalized to actin [8] [fold],Reduction of actin protein level compared to controls [9] [fold],FoxM1A levels normalized to actin [10],Actin protein level compared to controls [11]
"CCN1CCC(c2cc(C)c3nc(-c4cc5c(C)nc(C)cn5n4)cc(=O)n3c2)CC1 [Compound 1, 2-(4,6-dimethylpyrazolo[1,5-a]pyrazin-2-yl)-7-(1-ethylpiperidin-4-yl)-9-methyl-4H-pyrido[1,2-a]pyrimidin-4-one]",724,246,–,–,–,–,–,–,–,–,–,–,–,–
"CCc1nc(C)cn2nc(-c3cc(=O)n4cc(C5=CCNCC5)cc(C)c4n3)cc12 [Compound 2, 2-(4-ethyl-6-methylpyrazolo[1,5-a]pyrazin-2-yl)-9-methyl-7-(1,2,3,6-tetrahydropyridin-4-yl)-4H-pyrido[1,2-a]pyrimidin-4-one]",14,16,most potent,most potent,most potent,18,more than 90%,28,did not have any effect,~3,–,–,–,–
"Cc1cn2nc(-c3cc(=O)n4cc(N5CCN(C)CC5)ccc4n3)cc2c(C)n1 [Compound 3, 2-(4,6-dimethylpyrazolo[1,5-a]pyrazin-2-yl)-7-(4-methylpiperazin-1-yl)-4H-pyrido[1,2-a]pyrimidin-4-one]",3540,1210,–,–,–,–,–,–,–,–,30,6,undetectable,not altered
"Cc1cn2nc(-c3cc(=O)n4cc(N5CCNCC5)ccc4n3)cc2c(C)n1 [Compound 4, 2-(4,6-dimethylpyrazolo[1,5-a]pyrazin-2-yl)-7-(piperazin-1-yl)-4H-pyrido[1,2-a]pyrimidin-4-one]",104,68,most potent,most potent,most potent,–,–,–,–,–,–,–,–,–
